≈ marks a conversion by molar mass, not a printed value.

For data set [1], the system named is human kinases involved in cellular proliferation. The following applies: cited from earlier work.
Data set [2] in a line: aqueous solubility pH 7.4. The format is physicochemical.
Another data set has as its system P. falciparum W2. The experiment in a line: P. falciparum W2 antimalarial activity. The format is cell-based, Plasmodium falciparum. The following applies: less potent against W2 (CQ resistant) than D6.
For the next data set, the system named is P. berghei. Kind of data set: modified Thompson in vivo infection model. The following applies: mice, intraperitoneal 160 mg/kg/day × 3 days; for parasitemia: days 3 to 5 post-infection.
The test system of the next data set is P. falciparum D6. Kind of data set: P. falciparum D6 antimalarial activity. Format: cell-based, Plasmodium falciparum. The following applies: D6 strain.
Another data set relates to P. falciparum C235. The experiment in a line: P. falciparum C235 antimalarial activity. The format is cell-based, Plasmodium falciparum. The conditions noted are these: less potent against C235 (CQ, MQ, pyrimethamine resistant) than D6.
Data set [3] in a line: rat hepatocyte intrinsic clearance. Format: in vitro ADME. The conditions noted are these: rat hepatocytes.
Another data set has as its target T1, Aurora A (Homo sapiens, UniProt O14965).
T1 sequence (O14965 1-403): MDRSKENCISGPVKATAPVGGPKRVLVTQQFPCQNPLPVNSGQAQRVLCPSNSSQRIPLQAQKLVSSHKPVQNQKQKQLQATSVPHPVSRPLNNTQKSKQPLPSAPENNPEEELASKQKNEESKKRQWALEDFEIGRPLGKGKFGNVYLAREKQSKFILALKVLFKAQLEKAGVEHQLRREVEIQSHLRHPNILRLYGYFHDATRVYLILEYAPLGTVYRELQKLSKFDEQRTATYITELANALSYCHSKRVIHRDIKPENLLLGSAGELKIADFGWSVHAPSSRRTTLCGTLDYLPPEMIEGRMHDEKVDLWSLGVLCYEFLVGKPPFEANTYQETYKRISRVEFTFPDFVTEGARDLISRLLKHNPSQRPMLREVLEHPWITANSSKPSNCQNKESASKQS
The experiment in a line: human kinase panel at 5 μM. The conditions noted are these: test concentration 5 μM. Format: biochemical.

A further data set concerns the target MNK2 (Homo sapiens, UniProt Q9HBH9). The experiment in a line: human kinase panel at 5 μM. The format is biochemical. The conditions noted are these: test concentration 5 μM.
A further data set deals with MAP4K4 (Homo sapiens, UniProt O95819). Kind of data set: human kinase panel at 5 μM. Format: biochemical. The following applies: test concentration 5 μM.
Another data set addresses EGFR (Homo sapiens, UniProt P00533). Kind of data set: human kinase panel at 5 μM. The format is biochemical. The conditions noted are these: test concentration 5 μM.
Another data set has as its target Abl (Homo sapiens, UniProt P00519). The experiment in a line: human kinase panel at 5 μM. The format is biochemical. The following applies: test concentration 5 μM.
In another data set the target is KDR (Homo sapiens, UniProt P35968). Kind of data set: human kinase panel at 5 μM. Format: biochemical. The conditions noted are these: test concentration 5 μM.
The test system of another data set is panel of human kinases. Kind of data set: human kinase panel at 5 μM. The format is biochemical. The following applies: test concentration 5 μM.
Data set [4] in a line: human liver microsome intrinsic clearance. Format: in vitro ADME. The following applies: liver microsomes.
A further data set in a line: LogD7.4. Format: physicochemical. The following applies: pH 7.4.
Where [5] appears, read: aqueous solution at pH 7.4, pH 7.4, aqueous buffer.

Sequence of MNK2 (Q9HBH9 whole entry): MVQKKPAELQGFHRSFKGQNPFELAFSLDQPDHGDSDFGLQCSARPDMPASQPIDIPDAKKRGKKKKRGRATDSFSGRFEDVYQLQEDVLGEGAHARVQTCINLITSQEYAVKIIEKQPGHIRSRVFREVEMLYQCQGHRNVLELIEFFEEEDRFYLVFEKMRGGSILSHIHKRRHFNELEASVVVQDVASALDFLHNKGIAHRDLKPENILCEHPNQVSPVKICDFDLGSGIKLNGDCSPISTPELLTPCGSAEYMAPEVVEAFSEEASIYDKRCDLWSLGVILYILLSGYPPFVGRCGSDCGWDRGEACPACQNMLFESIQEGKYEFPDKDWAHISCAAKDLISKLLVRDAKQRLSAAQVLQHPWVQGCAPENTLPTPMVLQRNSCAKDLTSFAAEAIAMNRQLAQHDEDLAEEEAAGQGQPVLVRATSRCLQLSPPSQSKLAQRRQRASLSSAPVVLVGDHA
Sequence of EGFR (P00533 25-1210): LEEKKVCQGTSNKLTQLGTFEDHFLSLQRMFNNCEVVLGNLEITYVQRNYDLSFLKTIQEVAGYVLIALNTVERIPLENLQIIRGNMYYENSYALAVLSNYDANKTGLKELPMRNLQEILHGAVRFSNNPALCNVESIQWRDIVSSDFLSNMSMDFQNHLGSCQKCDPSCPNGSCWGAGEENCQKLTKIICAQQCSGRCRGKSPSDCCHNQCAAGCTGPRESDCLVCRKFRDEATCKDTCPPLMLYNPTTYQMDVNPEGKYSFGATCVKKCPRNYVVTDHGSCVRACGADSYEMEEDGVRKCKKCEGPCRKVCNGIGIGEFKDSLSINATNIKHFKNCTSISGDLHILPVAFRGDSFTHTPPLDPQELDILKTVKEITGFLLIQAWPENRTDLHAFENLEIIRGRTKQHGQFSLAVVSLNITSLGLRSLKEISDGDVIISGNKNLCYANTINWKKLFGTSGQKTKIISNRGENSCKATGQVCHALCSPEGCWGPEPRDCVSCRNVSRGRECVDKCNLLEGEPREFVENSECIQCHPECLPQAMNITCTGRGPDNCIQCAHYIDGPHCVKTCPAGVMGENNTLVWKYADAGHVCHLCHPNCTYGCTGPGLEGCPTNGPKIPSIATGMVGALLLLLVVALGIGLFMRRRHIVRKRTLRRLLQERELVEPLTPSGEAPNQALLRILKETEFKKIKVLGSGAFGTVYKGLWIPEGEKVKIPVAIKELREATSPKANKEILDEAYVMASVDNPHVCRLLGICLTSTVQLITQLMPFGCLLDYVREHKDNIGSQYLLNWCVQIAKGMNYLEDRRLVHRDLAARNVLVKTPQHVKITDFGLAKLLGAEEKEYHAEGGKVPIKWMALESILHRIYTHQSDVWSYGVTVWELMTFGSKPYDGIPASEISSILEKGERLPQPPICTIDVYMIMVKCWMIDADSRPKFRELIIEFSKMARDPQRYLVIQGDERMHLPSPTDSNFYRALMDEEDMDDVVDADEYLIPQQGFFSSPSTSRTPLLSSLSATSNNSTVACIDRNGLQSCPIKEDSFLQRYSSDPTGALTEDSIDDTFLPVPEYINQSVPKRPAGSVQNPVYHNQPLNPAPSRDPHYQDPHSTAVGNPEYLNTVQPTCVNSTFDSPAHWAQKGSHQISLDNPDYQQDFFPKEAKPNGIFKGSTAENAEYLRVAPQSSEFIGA
Sequence of Abl (P00519 whole entry): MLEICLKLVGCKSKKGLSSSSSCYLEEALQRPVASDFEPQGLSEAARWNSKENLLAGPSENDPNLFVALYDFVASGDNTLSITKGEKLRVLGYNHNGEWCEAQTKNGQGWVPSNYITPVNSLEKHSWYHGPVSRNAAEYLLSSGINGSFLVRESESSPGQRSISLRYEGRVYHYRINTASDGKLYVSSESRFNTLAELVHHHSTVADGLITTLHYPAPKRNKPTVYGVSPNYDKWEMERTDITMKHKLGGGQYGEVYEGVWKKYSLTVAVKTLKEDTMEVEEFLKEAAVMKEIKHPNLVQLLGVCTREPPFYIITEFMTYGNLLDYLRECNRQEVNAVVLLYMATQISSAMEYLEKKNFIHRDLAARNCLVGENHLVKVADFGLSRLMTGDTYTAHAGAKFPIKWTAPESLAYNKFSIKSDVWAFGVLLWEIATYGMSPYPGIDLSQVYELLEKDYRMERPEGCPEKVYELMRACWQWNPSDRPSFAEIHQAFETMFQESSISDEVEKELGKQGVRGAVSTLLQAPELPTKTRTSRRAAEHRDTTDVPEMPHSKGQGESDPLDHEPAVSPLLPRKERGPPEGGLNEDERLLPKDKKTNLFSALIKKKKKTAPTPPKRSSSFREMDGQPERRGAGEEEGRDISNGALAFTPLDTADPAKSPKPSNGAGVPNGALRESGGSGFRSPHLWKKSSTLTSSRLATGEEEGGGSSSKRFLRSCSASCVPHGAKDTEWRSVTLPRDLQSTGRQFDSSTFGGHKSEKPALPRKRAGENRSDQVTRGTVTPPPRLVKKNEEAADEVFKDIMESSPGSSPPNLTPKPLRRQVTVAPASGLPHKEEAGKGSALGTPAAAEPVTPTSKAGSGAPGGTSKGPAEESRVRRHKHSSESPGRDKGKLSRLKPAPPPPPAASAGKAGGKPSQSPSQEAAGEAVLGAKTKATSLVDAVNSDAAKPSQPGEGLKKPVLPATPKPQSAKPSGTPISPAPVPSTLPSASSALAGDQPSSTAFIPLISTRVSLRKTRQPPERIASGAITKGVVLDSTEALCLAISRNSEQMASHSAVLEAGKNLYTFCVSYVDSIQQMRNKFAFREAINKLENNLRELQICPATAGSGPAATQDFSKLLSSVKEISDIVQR
Sequence of KDR (P35968 20-1356): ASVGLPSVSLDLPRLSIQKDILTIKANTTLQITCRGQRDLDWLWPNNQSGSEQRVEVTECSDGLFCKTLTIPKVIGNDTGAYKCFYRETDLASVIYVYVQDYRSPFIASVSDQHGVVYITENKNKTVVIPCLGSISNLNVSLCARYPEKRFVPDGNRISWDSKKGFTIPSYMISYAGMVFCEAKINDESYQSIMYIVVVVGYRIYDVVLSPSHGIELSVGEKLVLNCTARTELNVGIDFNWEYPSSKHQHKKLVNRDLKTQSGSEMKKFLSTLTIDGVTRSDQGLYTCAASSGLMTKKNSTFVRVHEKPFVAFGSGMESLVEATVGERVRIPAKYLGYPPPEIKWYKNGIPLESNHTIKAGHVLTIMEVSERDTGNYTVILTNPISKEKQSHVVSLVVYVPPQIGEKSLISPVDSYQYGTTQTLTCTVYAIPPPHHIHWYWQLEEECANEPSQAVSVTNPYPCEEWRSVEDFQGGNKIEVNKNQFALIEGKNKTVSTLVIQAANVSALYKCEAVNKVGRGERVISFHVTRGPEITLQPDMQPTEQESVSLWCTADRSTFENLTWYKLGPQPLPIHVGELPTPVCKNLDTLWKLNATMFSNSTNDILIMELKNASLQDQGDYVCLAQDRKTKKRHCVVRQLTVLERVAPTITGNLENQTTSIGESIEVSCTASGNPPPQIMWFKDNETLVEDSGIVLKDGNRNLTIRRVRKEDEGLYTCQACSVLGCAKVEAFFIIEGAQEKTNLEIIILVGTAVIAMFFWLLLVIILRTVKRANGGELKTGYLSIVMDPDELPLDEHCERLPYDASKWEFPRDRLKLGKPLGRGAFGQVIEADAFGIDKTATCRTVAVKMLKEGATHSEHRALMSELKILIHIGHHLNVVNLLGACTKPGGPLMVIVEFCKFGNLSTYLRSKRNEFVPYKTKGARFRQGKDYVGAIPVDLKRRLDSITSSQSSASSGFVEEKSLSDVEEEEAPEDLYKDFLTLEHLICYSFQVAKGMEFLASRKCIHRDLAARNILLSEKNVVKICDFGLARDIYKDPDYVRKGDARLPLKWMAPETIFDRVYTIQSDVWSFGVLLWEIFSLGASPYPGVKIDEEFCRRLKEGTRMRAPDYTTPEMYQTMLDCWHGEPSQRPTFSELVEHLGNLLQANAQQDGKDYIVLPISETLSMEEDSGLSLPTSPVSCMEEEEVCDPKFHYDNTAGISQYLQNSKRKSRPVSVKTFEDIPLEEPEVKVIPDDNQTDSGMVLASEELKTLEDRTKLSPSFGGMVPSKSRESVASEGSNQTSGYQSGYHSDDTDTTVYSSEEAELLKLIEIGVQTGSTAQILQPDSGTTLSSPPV

On to `CS(=O)(=O)CCNCc1ccc(-c2ccc3ncnc(Nc4ccc(OCc5cccc(F)c5)c(Cl)c4)c3c2)o1` [Compound 1, lapatinib], for which, in data set [1], the “selectivity versus numerous human kinases” value is given as more than 300 fold.

As for `COc1ccc(Nc2ccnc3cc(-c4ccc(S(=O)(=O)N5CCN(C)CC5)cc4)ccc23)cc1Cl` [Compound 7, N-(3-Chloro-4-methoxyphenyl)-7-{4-[(4-methylpiperazin-1-yl)sulfonyl]phenyl}quinolin-4-amine], the concentration in solution in [2] (aqueous medium, pH 7.4, aqueous buffer) (solubility) came to 100 µM (≈ 52.3 µg/mL). Besides, the “activity against W2 strain relative to D6 (fold)” value with P. falciparum W2 was more than 3 fold. Moreover, in the data set with P. berghei, the “life extension compared to the control group” value amounted to 5 days and the parasitemia entry is “reduction in parasitemia”.

Turning to `Cc1ccc(Nc2ccnc3cc(-c4ccc(S(=O)(=O)N5CCN(C)CC5)cc4)ccc23)cc1Cl` [Compound 11, N-(3-Chloro-4-methylphenyl)-7-{4-[(4-methylpiperazin-1-yl)sulfonyl]phenyl}quinolin-4-amine], in the data set on P. falciparum W2, the “activity against W2 strain relative to D6 (fold)” value was more than 3 fold.

Regarding `CN1CCN(S(=O)(=O)c2ccc(-c3ccc4c(Nc5cccnc5)ccnc4c3)cc2)CC1` [Compound 12, 7-{4-[(4-Methylpiperazin-1-yl)sulfonyl]phenyl}-N-(pyridin-3-yl)quinolin-4-amine], the “reduction in potency compared to 3” value in the data set on P. falciparum D6 is on record as 10 fold.

Turning to `CN1CCN(S(=O)(=O)c2ccc(-c3ccc4c(Nc5cnccn5)ccnc4c3)cc2)CC1` [Compound 14, 7-{4-[(4-Methylpiperazin-1-yl)sulfonyl]phenyl}-N-(pyrazin-2-yl)quinolin-4-amine], the “activity against W2 strain relative to D6 (fold)” value with P. falciparum W2 is recorded as more than 3 fold.

For the compound `CN1CCN(S(=O)(=O)c2ccc(-c3ccc4c(Nc5cnc(C#N)cn5)ccnc4c3)cc2)CC1` [Compound 19, 5-[(7-{4-[(4-Methylpiperazin-1-yl)sulfonyl]phenyl}quinolin-4-yl)amino]pyrazine-2-carbonitrile], the “activity against W2 strain relative to D6 (fold)” value with P. falciparum W2 is recorded as more than 3 fold.

As to `CN1CCN(S(=O)(=O)c2ccc(-c3ccc4c(Nc5ncc(Cl)cn5)ccnc4c3)cc2)CC1` [Compound 21, N-(5-Chloropyrimidin-2-yl)-7-{4-[(4-methylpiperazin-1-yl)sulfonyl]phenyl}quinolin-4-amine], in the data set on P. falciparum W2, the “activity against W2 strain relative to D6 (fold)” value is recorded as more than 3 fold. Moreover, the “activity against C235 strain relative to D6 (fold)” value in the data set on P. falciparum C235 is reported as more than 3 fold.

Turning to `Cc1nnc(Nc2ccnc3cc(-c4ccc(S(=O)(=O)N5CCN(C)CC5)cc4)ccc23)nc1C` [Compound 23, N-(Dimethyl-1,2,4-triazin-3-yl)-7-{4-[(4-methylpiperazin-1-yl)sulfonyl]phenyl}quinolin-4-amine], in the data set with P. falciparum W2, the “activity against W2 strain relative to D6 (fold)” value is given as more than 3 fold.

As for `Cc1cc(Nc2ccnc3cc(-c4ccc(S(=O)(=O)N5CCN(C)CC5)cc4)ccc23)sn1` [Compound 24, N-(3-Methyl-1,2-thiazol-5-yl)-7-{4-[(4-methylpiperazin-1-yl)sulfonyl]phenyl}quinolin-4-amine], the “activity against W2 strain relative to D6 (fold)” value with P. falciparum W2 is given as more than 3 fold.

As for `CN1CCN(c2nsnc2-c2ccc3c(Nc4ccc(OCc5cccc(F)c5)c(Cl)c4)ccnc3c2)CC1` [Compound 30, N-(3-Chloro-4-((3-fluorobenzyl)oxy)phenyl)-7-(4-(4-methylpiperazin-1-yl)-1,2,5-thiadiazol-3-yl)quinolin-4-amine], the “reduction in potency compared to 3” value in the data set on P. falciparum D6 is on record as “six-fold reduction in potency”.

For `CC(C)(C)OC(=O)Nc1ccc2c(Nc3ccc(OCc4cccc(F)c4)c(Cl)c3)ccnc2c1` [Compound 36, Tert-butyl (4-((3-Chloro-4-((3-fluorobenzyl)oxy)phenyl)amino)quinolin-7-yl)carbamate], the “reduction in potency compared to 3” value with P. falciparum D6 was “almost three-fold drop in potency”. Further, the “activity against W2 strain relative to D6 (fold)” value in the data set with P. falciparum W2 is recorded as more than 3 fold.

As for `CN1CCN(c2ncc(-c3ccc4c(Nc5cnccn5)ccnc4c3)cn2)CC1` [Compound 40, 7-(2-(4-Methylpiperazin-1-yl)pyrimidin-5-yl)-N-(pyrazin-2-yl)quinolin-4-amine], the “Rat Hepatocyte CLint” value in [3] is reported as 130 μL/min/10^6. Also, the “inhibition of Aurora A” value against Aurora A was “significant inhibition”. The “inhibition of MNK2” value against MNK2 is “significant inhibition”. At MAP4K4, the “inhibition of MAP4K4” value is “significant inhibition”. For the same compound, the “inhibition of EGFR” value against EGFR is reported as “significant inhibition”. The “inhibition of Abl” value on Abl is “significant inhibition”. In addition, the “inhibition of KDR” value against KDR is listed as “significant inhibition”. In the data set with panel of human kinases, the “number of kinases with insignificant inhibition” value was determined as 28 kinases and the “number of kinases with moderate to weak inhibition” value was 10 kinases. The parasitemia result in the data set with P. berghei is “reduction in parasitemia”.

As to `COc1ccc(Nc2ccnc3cc(-c4cnc(N5CCN(C)CC5)nc4)ccc23)cc1Cl` [Compound 41, N-(3-Chloro-4-methoxyphenyl)-7-(2-(4-methylpiperazin-1-yl)pyrimidin-5-yl)quinolin-4-amine], the solubility in data set [2] (setting [5]) is less than 1 µM. Also, the “Rat Hepatocyte CLint” value in [3] worked out at 45 μL/min/10^6.

As to `CN1CCN(c2ncc(-c3ccc4c(Nc5ccc6[nH]nnc6c5)ccnc4c3)cn2)CC1` [Compound 42, N-(1H-Benzo[d][1,2,3]triazol-5-yl)-7-(2-(4-methylpiperazin-1-yl)pyrimidin-5-yl)quinolin-4-amine], the solubility in data set [2] (setting [5]) is less than 1 µM. This compound showed a microsomal CLint in data set [4] of 120 µL/min/mg. For the same compound, the “Rat Hepatocyte CLint” value in data set [3] came to 51 μL/min/10^6. The logD in the data set “LogD7.4” came to 3.3.

With `c1cnc(Nc2ccnc3cc(-c4cn[nH]c4)ccc23)cn1` [Compound 43, N-(Pyrazin-2-yl)-7-(1H-pyrazol-4-yl)quinolin-4-amine], the solubility in [2] (setting [5]) stood at 1 µM (≈ 0.288 µg/mL). In data set [4], this compound showed a microsomal CLint of 130 µL/min/mg. In data set [3], the “Rat Hepatocyte CLint” value was 5.0 μL/min/10^6. The compound further yielded a logD in “LogD7.4” of 2.6.

With `COc1ccc(Nc2ccnc3cc(-c4cn[nH]c4)ccc23)cc1Cl` [Compound 44, N-(3-Chloro-4-methoxyphenyl)-7-(1H-pyrazol-4-yl)quinolin-4-amine], in [2] (setting [5]), the solubility amounted to 2 µM (≈ 0.702 µg/mL). In addition, the microsomal CLint in [4] stood at 8 µL/min/mg. The “Rat Hepatocyte CLint” value in data set [3] came to 5.0 μL/min/10^6. The compound also returned a pH-dependent lipophilicity (logD) in the data set “LogD7.4” of 3.5.

For `CN1CCN(c2ccc(Nc3ccc4c(Nc5cnccn5)ccnc4c3)cc2)CC1` [Compound 45, N^7-(4-(4-Methylpiperazin-1-yl)phenyl)-N^4-(pyrazin-2-yl)quinoline-4,7-diamine], the “Rat Hepatocyte CLint” value in [3] came to 10 μL/min/10^6. Further, the logD in the data set “LogD7.4” was found to be 2.2.

Regarding `CN1CCN(c2ccnc(Nc3ccc4c(Nc5cnccn5)ccnc4c3)n2)CC1` [Compound 46, N^7-(4-(4-Methylpiperazin-1-yl)pyrimidin-2-yl)-N^4-(pyrazin-2-yl)quinoline-4,7-diamine], in data set [3], the “Rat Hepatocyte CLint” value worked out at 9.3 μL/min/10^6. Also, the logD in “LogD7.4” was found to be 2.8.

Regarding `COc1ccc(Nc2ccnc3cc(Nc4nccc(N5CCN(C)CC5)n4)ccc23)cc1Cl` [Compound 47, N^4-(3-Chloro-4-methoxyphenyl)-N^7-(4-(4-methylpiperazin-1-yl)pyrimidin-2-yl)quinoline-4,7-diamine], the solubility in data set [2] (setting [5]) was 570 µM (≈ 271 µg/mL). Besides, the “Rat Hepatocyte CLint” value in data set [3] is listed as 7.2 μL/min/10^6. In the data set “LogD7.4”, this compound displayed a logD of 3.3.

In turn, `CN1CCN(c2nccc(Nc3ccc4c(Nc5cnccn5)ccnc4c3)n2)CC1` [Compound 48, N^7-(2-(4-Methylpiperazin-1-yl)pyrimidin-4-yl)-N^4-(pyrazin-2-yl)quinoline-4,7-diamine] had a logD in the data set “LogD7.4” of 2.9.

`COc1ccc(Nc2ccnc3cc(Nc4ccnc(N5CCN(C)CC5)n4)ccc23)cc1Cl` [Compound 49, N^4-(3-Chloro-4-methoxyphenyl)-N^7-(2-(4-methylpiperazin-1-yl)pyrimidin-4-yl)quinoline-4,7-diamine] returned a microsomal CLint in [4] of 45 µL/min/mg. Further, in data set [3], the “Rat Hepatocyte CLint” value is 2.3 μL/min/10^6.

Source of the values: publication PMC6585443 (ACS infectious diseases, 2018).
